Source: the NIST ThermoML archive (doi:10.1021/acs.jced.8b00132)
“And” between values parts separate entries of the source, which are not always exact repeats. Identical values can stand only once.

Conditions: Gas

O=C(C(F)(F)C(F)(F)F)C(F)(C(F)(F)F)C(F)(F)F [dodecafluoro-2-methylpentan-3-one]
Conditions	thermal conductivity
473.39 K, 1887 kPa, transient hot wire	0.02688 W/m/K
473.39 K, 22521 kPa, transient hot wire	0.05152 W/m/K
473.39 K, 49215 kPa, transient hot wire	0.06271 W/m/K
473.39 K, 49255 kPa, transient hot wire	0.06285 W/m/K
473.4 K, 22522 kPa, transient hot wire	0.05154 W/m/K
473.4 K, 33946 kPa, transient hot wire	0.05711 W/m/K
473.42 K, 7819 kPa, transient hot wire	0.04151 W/m/K
473.44 K, 47 kPa, hot wire	0.02441 W/m/K
473.44 K, 201 kPa, hot wire	0.0244 W/m/K
473.44 K, 7822 kPa, transient hot wire	0.0416 W/m/K
473.44 K, 49246 kPa, transient hot wire	0.06304 W/m/K
473.45 K, 47 kPa, hot wire	0.02432 W/m/K
473.45 K, 606 kPa, hot wire	0.02611 W/m/K
473.45 K, 49207 kPa, transient hot wire	0.06277 W/m/K
473.45 K, 49209 kPa, transient hot wire	0.06279 W/m/K
473.45 K, 49249 kPa, transient hot wire	0.06286 W/m/K
473.46 K, 202 kPa, hot wire	0.02416 W/m/K
473.46 K, 606 kPa, hot wire	0.02602 W/m/K
473.46 K, 1913 kPa, transient hot wire	0.0269 W/m/K
473.46 K, 10825 kPa, transient hot wire	0.04418 W/m/K
473.46 K, 10827 kPa, transient hot wire	0.04414 W/m/K
473.47 K, 33946 kPa, transient hot wire	0.05693 W/m/K
473.48 K, 419 kPa, hot wire	0.02531 W/m/K
473.48 K, 1914 kPa, transient hot wire	0.027 W/m/K
473.48 K, 22521 kPa, transient hot wire	0.05152 W/m/K
473.48 K, 33946 kPa, transient hot wire	0.05688 W/m/K
473.49 K, 418 kPa, hot wire	0.02526 W/m/K
473.49 K, 1887 kPa, transient hot wire	0.027 W/m/K
473.49 K, 15492 kPa, transient hot wire	0.04746 W/m/K
473.49 K, 49134 kPa, transient hot wire	0.06279 W/m/K
473.5 K, 1887 kPa, transient hot wire	0.02709 W/m/K
473.51 K, 1475 kPa, transient hot wire	0.02577 W/m/K
473.51 K, 49242 kPa, transient hot wire	0.0628 W/m/K
473.52 K, 1475 kPa, transient hot wire	0.02566 W/m/K
473.52 K, 7821 kPa, transient hot wire	0.04156 W/m/K
473.52 K, 7822 kPa, transient hot wire	0.04146 W/m/K
473.53 K, 10824 kPa, transient hot wire	0.04374 W/m/K
473.53 K, 49248 kPa, transient hot wire	0.06293 W/m/K
473.54 K, 46 kPa, hot wire	0.0245 W/m/K
473.54 K, 201 kPa, hot wire	0.02457 W/m/K
473.55 K, 201 kPa, hot wire	0.02434 W/m/K
473.55 K, 839 kPa, transient hot wire	0.02508 W/m/K
473.55 K, 10823 kPa, transient hot wire	0.0442 W/m/K
473.55 K, 22519 kPa, transient hot wire	0.05152 W/m/K
473.55 K, 33944 kPa, transient hot wire	0.05699 W/m/K
473.55 K, 33949 kPa, transient hot wire	0.05683 W/m/K
473.56 K, 46 kPa, hot wire	0.02434 W/m/K
473.56 K, 22522 kPa, transient hot wire	0.05162 W/m/K
473.57 K, 840 kPa, transient hot wire	0.02498 W/m/K
473.58 K, 1912 kPa, transient hot wire	0.02703 W/m/K and 0.02697 W/m/K
473.58 K, 15493 kPa, transient hot wire	0.04744 W/m/K
473.6 K, 604 kPa, transient hot wire	0.02513 W/m/K
473.6 K, 15489 kPa, transient hot wire	0.04749 W/m/K
473.61 K, 605 kPa, transient hot wire	0.02525 W/m/K
473.62 K, 33950 kPa, transient hot wire	0.05685 W/m/K
473.63 K, 10824 kPa, transient hot wire	0.04429 W/m/K
473.64 K, 10823 kPa, transient hot wire	0.04414 W/m/K
473.65 K, 1476 kPa, transient hot wire	0.02571 W/m/K
473.66 K, 1476 kPa, transient hot wire	0.02567 W/m/K
473.67 K, 429 kPa, transient hot wire	0.02546 W/m/K
473.67 K, 15488 kPa, transient hot wire	0.04746 W/m/K
473.67 K, 22520 kPa, transient hot wire	0.05153 W/m/K
473.68 K, 430 kPa, transient hot wire	0.02555 W/m/K
473.71 K, 842 kPa, transient hot wire	0.02515 W/m/K
473.71 K, 1912 kPa, transient hot wire	0.02721 W/m/K
473.71 K, 1913 kPa, transient hot wire	0.02727 W/m/K
473.71 K, 10824 kPa, transient hot wire	0.04392 W/m/K
473.72 K, 841 kPa, transient hot wire	0.02507 W/m/K
473.74 K, 10822 kPa, transient hot wire	0.04424 W/m/K
473.75 K, 22523 kPa, transient hot wire	0.05151 W/m/K and 0.05152 W/m/K
473.77 K, 607 kPa, transient hot wire	0.02516 W/m/K and 0.02531 W/m/K
473.77 K, 15488 kPa, transient hot wire	0.04755 W/m/K
473.78 K, 1476 kPa, transient hot wire	0.02572 W/m/K
473.78 K, 15486 kPa, transient hot wire	0.04744 W/m/K
473.79 K, 1476 kPa, transient hot wire	0.02574 W/m/K
473.81 K, 1914 kPa, transient hot wire	0.02747 W/m/K
473.81 K, 10823 kPa, transient hot wire	0.0442 W/m/K and 0.04427 W/m/K
473.82 K, 427 kPa, transient hot wire	0.02562 W/m/K
473.82 K, 428 kPa, transient hot wire	0.02569 W/m/K
473.82 K, 1914 kPa, transient hot wire	0.0274 W/m/K
473.85 K, 15487 kPa, transient hot wire	0.04761 W/m/K
473.87 K, 15485 kPa, transient hot wire	0.04754 W/m/K
473.88 K, 841 kPa, transient hot wire	0.02504 W/m/K
473.89 K, 841 kPa, transient hot wire	0.02504 W/m/K
